Measurements from patent US20080262084A1, “Stable Emulsion Compositions for Intravenous Administration Having Preservatie Efficacy” (priority 2004, published 2008).

Tests used:
[1] = system: Swiss Albino Mice; assay: Safety study with Monolaurin, daily intravenous administration for 7 days (Example XII); details: Monolaurin group versus EDTA group
Method: Compositions of Example IX, X and M were studied along with 5% Dextrose Injection as control.
The objective of this study was to access the safety of Monolaurin as such and in comparison with EDTA when administered into mice by an intravenous route.
Forty healthy Swiss albino mice weighing on an average 20-22 g were used in this study.
Toxicity was determined after administration of study materials.
Data was recorded as Mean +SD and median values for histopathological data.
Student's paired t-test was used to compare basal and final values of the parametric data within the same group and Student's unpaired t-test was used to compare values between two different groups. A ‘p’ value of <0.05 was considered as significant.
All experimental animals were observed daily for seven days for following parameters:
Each animal was weighed before the administration of study material and daily during the treatment period.

[2] = system: broad spectrum microbial growth; details: Edetate at concentrations of 0.0025% and below; cited from earlier work
[3] = system: Candida albicans ATCC 10231, Pseudomonas aeruginosa ATCC 9027, Escherichia coli ATCC 8739 and Staphylococcus aureus ATCC 6538; assay: Preservative efficacy, overall result on the four standard U.S.P. organisms; type: cell-based; details: Monolaurin at 0.01% w/v in the emulsion, organisms tested
Method: The said aliquots were incubated at a temperature of 20-25° C. for fungal culture and 30 to 35° C. for bacterial culture as recommended under “Antimicrobial effectiveness testing” in United States Pharmacopeia, Chapter 51 (U.S.P. <51>).
(for fungal cultures) and 32° C.±2° C. (for bacterial cultures). The viable counts of the test organisms were determined after 24 hours and 48 hours.

[4] = system: rats; details: administered orally; cited from earlier work
[5] = cited from earlier work

Row | Structure (SMILES) | Histopathological data [1] | preventing a no more than 10 fold increase in broad spectrum microbial growth [2] | effectiveness as preservative (preventing a growth of not more than 10 fold) [3] | LD50 [4] | solubility in aqueous media ([5]; aqueous media) | solubility in fat solvents ([5]; chloroform, benzene, ethanol, or acetone)
1 | O=C([O-])CN(CCN(CC(=O)[O-])CC(=O)O)CC(=O)O.[Na+].[Na+] [EDTA, Disodium edetate, reference compound] | compare well | ineffective | – | – | – | –
2 | CCCCCCCCCCCC(=O)OCC(O)CO (stereo not shown) [Monolaurin] | compare well | – | effective as a preservative | about 53,000 mg/kg body weight | insoluble | highly soluble
